The assay has as its target GluA1o-γ8 (GRIA1o-CACNG8 fusion construct; TARP γ8 dependent AMPA receptor) (Homo sapiens (Human), UniProt P42261+Q8WXS5). Briefly: Calcium flux assay (FLIPR), inhibition of glutamate response of GluA1o-γ8 channel. Format: cell-based. Conditions: HEK293 cells stably expressing GRIA1o-CACNG8 fusion; 15 μM glutamate; pIC50 = negative log of IC50 in molar; read-out: GluR1-γ8 (pIC50) (converted). A digest of the protocol: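 Potency is the midpoint of a four-parameter logistic fit to control-normalized FLIPR calcium responses elicited by 15 μM glutamate. Stable HEK293 cells carried a fused GluA1o-γ8 construct and were preincubated with compound and calcium dye in pH 7.4 HEPES buffer.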

GluA1o-γ8 (GRIA1o-CACNG8 fusion construct; TARP γ8 dependent AMPA receptor), sequence (P42261 other isoform, or with tags, fused parts or gaps): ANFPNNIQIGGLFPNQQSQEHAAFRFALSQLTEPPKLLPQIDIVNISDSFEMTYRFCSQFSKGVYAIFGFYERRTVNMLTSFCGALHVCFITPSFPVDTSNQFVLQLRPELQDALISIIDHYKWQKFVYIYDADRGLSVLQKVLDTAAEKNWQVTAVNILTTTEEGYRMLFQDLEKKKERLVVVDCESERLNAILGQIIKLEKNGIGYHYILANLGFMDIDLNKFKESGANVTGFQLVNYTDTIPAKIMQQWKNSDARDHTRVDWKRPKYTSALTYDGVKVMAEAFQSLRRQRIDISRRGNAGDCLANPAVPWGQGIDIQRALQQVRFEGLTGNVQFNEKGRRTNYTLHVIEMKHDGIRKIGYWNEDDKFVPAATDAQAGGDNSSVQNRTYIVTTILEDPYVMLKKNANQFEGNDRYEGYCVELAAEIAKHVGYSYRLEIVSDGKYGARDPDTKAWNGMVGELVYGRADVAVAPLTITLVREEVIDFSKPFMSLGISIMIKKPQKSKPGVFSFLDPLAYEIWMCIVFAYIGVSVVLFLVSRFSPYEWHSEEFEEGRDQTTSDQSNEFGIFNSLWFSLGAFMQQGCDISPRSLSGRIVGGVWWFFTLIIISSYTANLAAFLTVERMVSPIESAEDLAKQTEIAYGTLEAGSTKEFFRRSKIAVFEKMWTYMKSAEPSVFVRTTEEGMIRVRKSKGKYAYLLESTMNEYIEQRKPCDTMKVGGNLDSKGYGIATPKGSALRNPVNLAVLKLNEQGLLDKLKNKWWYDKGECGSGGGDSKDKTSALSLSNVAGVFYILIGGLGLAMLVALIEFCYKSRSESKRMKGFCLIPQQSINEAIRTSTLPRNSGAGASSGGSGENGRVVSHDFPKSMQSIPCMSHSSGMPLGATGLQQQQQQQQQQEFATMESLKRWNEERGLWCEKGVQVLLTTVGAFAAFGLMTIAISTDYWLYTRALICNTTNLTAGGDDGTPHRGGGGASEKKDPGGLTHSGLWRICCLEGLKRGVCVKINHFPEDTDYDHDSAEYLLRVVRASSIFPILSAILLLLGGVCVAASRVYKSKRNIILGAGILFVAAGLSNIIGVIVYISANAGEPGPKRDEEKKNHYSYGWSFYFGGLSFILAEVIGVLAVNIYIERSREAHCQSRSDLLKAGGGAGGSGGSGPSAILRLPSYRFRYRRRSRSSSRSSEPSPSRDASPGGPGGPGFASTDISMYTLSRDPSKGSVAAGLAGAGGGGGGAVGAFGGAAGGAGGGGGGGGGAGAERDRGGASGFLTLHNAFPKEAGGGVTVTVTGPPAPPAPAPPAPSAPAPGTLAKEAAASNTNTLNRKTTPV

In the case of `CC(=O)N[C@@H]1CCN(c2nccn3c(-c4ccc5c(c4)CC(=O)N5)c(-c4ccc(F)cc4)nc23)C1` [Example 250, N-[(3R)-1-[2-(4-Fluorophenyl)-3-(2-oxoindolin-5-yl)imidazo[1,2-a]pyrazin-8-yl]pyrrolidin-3-yl]acetamide], the IC50 is 39.8 nM.

As to `O=C1CN(c2nccn3c(-c4ccc5c(c4)CC(=O)N5)c(-c4ccc(F)cc4)nc23)CCN1` [Example 32, 5-[2-(4-Fluorophenyl)-8-(3-oxopiperazin-1-yl)imidazo[1,2-a]pyrazin-3-yl]indolin-2-one], the IC50 was 0.501 nM.

Regarding `O=C1Cc2cc(-c3c(-c4ccc(F)cc4)nc4c(N5CC6(COC6)C5)nccn34)ccc2N1` [Example 24, 5-[2-(4-Fluorophenyl)-8-(6-oxa-2-azaspiro[3.3]heptan-2-yl)imidazo[1,2-a]pyrazin-3-yl]indolin-2-one], the IC50 is 5.01 nM. To `N#Cc1ccc(-c2nc3c(N4CCOCC4)nccn3c2-c2ccc3[nH]ncc3c2)cc1` [Example 97, 4-[3-(1H-Indazol-5-yl)-8-morpholino-imidazo[1,2-a]pyrazin-2-yl]benzonitrile] belongs 3.98 nM; to `CN1CCN(c2nccn3c(-c4ccc5c(c4)CC(=O)N5)c(-c4ccc(F)cc4)nc23)CC1=O` [Example 110, 5-(2-(4-fluorophenyl)-8-(4-methyl-3-oxopiperazin-1-yl)imidazo[1,2-a]pyrazin-3-yl)indolin-2-one], 1.26 nM. In the case of `Oc1ccc(-c2c(-c3ccc(F)cc3)nc3c(N4CCCCC4)nccn23)cc1` [Example 9, 4-[2-(4-Fluorophenyl)-8-(1-piperidyl)imidazo[1,2-a]pyrazin-3-yl]phenol] it was 200 nM; in that of `Cc1cnc(N2CCOCC2)n2nc(C(C)C)c(-c3ccc4[nH]c(=O)sc4c3)c12` [Example 243, 6-(2-Isopropyl-4-methyl-7-morpholino-pyrazolo[1,5-c]pyrimidin-3-yl)-3H-1,3-benzothiazol-2-one], 3.98 nM; in that of `O=C1CN(c2nccn3c(-c4ccc5c(c4)CC(=O)N5)c(C(=O)Nc4ccccc4)nc23)CCN1` [Example 143, 3-(2-Oxoindolin-5-yl)-8-(3-oxopiperazin-1-yl)-N-phenyl-imidazo[1,2-a]pyrazine-2-carboxamide], 20 nM.

On to `Oc1ccc(-c2c(-c3ccc(F)cc3)nc3c(N4CCCC4)nccn23)cc1` [Example 126, 4-[2-(4-Fluorophenyl)-8-pyrrolidin-1-yl-imidazo[1,2-a]pyrazin-3-yl]phenol], for which the IC50 is 50.1 nM.

Consider `O=c1ccc2cc(-c3c(-c4ccc(F)cc4)nc4c(N5CCOCC5)nccn34)ccc2[nH]1` [Example 125, 6-[2-(4-Fluorophenyl)-8-morpholino-imidazo[1,2-a]pyrazin-3-yl]-1H-quinolin-2-one], for which the IC50 was 39.8 nM. As for `O=C(c1ccccc1)c1nc2c(N3CCOCC3)nccn2c1-c1ccc(O)cc1` [Example 151, [3-(4-Hydroxyphenyl)-8-morpholino-imidazo[1,2-a]pyrazin-2-yl]-phenyl-methanone], the IC50 is 12.6 nM. In the case of `N#CC1CN(c2nccn3c(-c4ccc5c(c4)CC(=O)N5)c(-c4ccc(F)cc4)nc23)C1` [Example 66, 1-[2-(4-Fluorophenyl)-3-(2-oxoindolin-5-yl)imidazo[1,2-a]pyrazin-8-yl]azetidine-3-carbonitrile] it was 3.98 nM; in that of `CC(C)c1nn2cnc(C(F)(F)F)cc2c1-c1ccc2[nH]c(=O)sc2c1` [Example 231, 6-[2-Isopropyl-5-(trifluoromethyl)pyrazolo[1,5-c]pyrimidin-3-yl]-3H-1,3-benzothiazol-2-one], 63.1 nM. To `O=C1Cc2cc(-c3c(-c4ccc(F)cc4)nn4cnccc34)ccc2N1` [Example 175, 5-[2-(4-Fluorophenyl)pyrazolo[1,5-c]pyrimidin-3-yl]indolin-2-one] belongs 631 nM. Consider `c1ccc(-c2nn3c(N4CCOCC4)nccc3c2-c2ccc3[nH]ncc3c2)cc1` [Example 233, 4-[3-(1H-Indazol-5-yl)-2-phenyl-pyrazolo[1,5-c]pyrimidin-7-yl]morpholine], for which the IC50 was 0.398 nM. In the case of `O=C1Cc2cc(-c3c(-c4ccc(F)cc4)nc4c(N5CCC6(CC5)N=N6)nccn34)ccc2N1` [Example 185, 5-(2-(4-Fluorophenyl)-8-(1,2,6-triazaspiro[2.5]oct-1-en-6-yl)imidazo[1,2-a]pyrazin-3-yl)indolin-2-one] it was 0.158 nM; in that of `O=C1Cc2cc(-c3c(-c4ccccc4)nc4c(N5CCC(CCF)CC5)nccn34)ccc2N1` [Example 77, 5-[8-[4-(2-Fluoroethyl)-1-piperidyl]-2-phenyl-imidazo[1,2-a]pyrazin-3-yl]indolin-2-one], 0.398 nM.

Consider `O=c1[nH]c2ccc(-c3c(-c4ccccc4)nn4c(N5CCOCC5)nccc34)cc2s1` [Example 242, 6-(7-Morpholino-2-phenyl-pyrazolo[1,5-c]pyrimidin-3-yl)-3H-1,3-benzothiazol-2-one], for which the IC50 is 0.0501 nM. To `O=c1[nH]c2ccc(-c3c(-c4ccc(F)cc4)nc4c(N5CC6(COC6)C5)nccn34)cc2[nH]1` [Example 26, 5-[2-(4-Fluorophenyl)-8-(6-oxa-2-azaspiro[3.3]heptan-2-yl)imidazo[1,2-a]pyrazin-3-yl]-1,3-dihydrobenzimidazol-2-one] belongs 5.01 nM; to `Fc1ccc(-c2nc3c(N4CC5(COC5)C4)nccn3c2-c2ccc3[nH]ncc3c2)cc1` [Example 25, 2-[2-(4-Fluorophenyl)-3-(1H-indazol-5-yl)imidazo[1,2-a]pyrazin-8-yl]-6-oxa-2-azaspiro[3.3]heptane], 7.94 nM.

In the case of `O=C1Cc2cc(-c3c(-c4ccc(F)cc4)nc4c(N5CC[C@H](O)C5)nccn34)ccc2N1` (single isomer, unassigned) [Example 53, (S*)-5-[2-(4-Fluorophenyl)-8-(3-hydroxypyrrolidin-1-yl)imidazo[1,2-a]pyrazin-3-yl]indolin-2-one], the IC50 was 1.58 nM. In the case of `CO[C@H]1CCN(c2nccc3c(-c4ccc5c(c4)CC(=O)N5)c(-c4ccccc4)nn23)C1` [Example 197, 5-[7-[(3S)-3-Methoxypyrrolidin-1-yl]-2-phenyl-pyrazolo[1,5-c]pyrimidin-3-yl]indolin-2-one] it was 1.26 nM; in that of `O=C1Cc2cc(-c3c(-c4ccc(F)cc4)nc4c(N5CCC(=NO)CC5)nccn34)ccc2N1` [Example 155, 5-[2-(4-Fluorophenyl)-8-(4-hydroxyimino-1-piperidyl)imidazo[1,2-a]pyrazin-3-yl]indolin-2-one], 79.4 nM. In the case of `O=C1Cc2cc(-c3c(C(=O)c4ccccc4)nc4c(N5CCS(=O)(=O)CC5)nccn34)ccc2N1` [Example 157, 5-[2-Benzoyl-8-(1,1-dioxo-1,4-thiazinan-4-yl)imidazo[1,2-a]pyrazin-3-yl]indolin-2-one] it was 2.51 nM; in that of `Oc1ccc(-c2c(-c3cccc(F)c3)nc3c(N4CCOCC4)nccn23)cc1` [Example 4, 4-[2-(3-Fluorophenyl)-8-morpholino-imidazo[1,2-a]pyrazin-3-yl]phenol], 63.1 nM; in that of `O=C1Cc2cc(-c3c(C4CC4)nc4cnc(C(F)(F)F)cn34)ccc2N1` [Example 219, 5-[2-Cyclopropyl-6-(trifluoromethyl)imidazo[1,2-a]pyrazin-3-yl]indolin-2-one], 6310 nM. To `CC(=O)N1CCN(c2nccn3c(-c4ccc5[nH]c(=O)[nH]c5c4)c(-c4ccc(F)cc4)nc23)CC1` [Example 14, 5-[8-(4-Acetylpiperazin-1-yl)-2-(4-fluorophenyl)imidazo[1,2-a]pyrazin-3-yl]-1,3-dihydrobenzimidazol-2-one] belongs 1.58 nM. In the case of `O=C(NCc1ccccc1)c1nc2c(N3CCOCC3)nccn2c1-c1ccc2[nH]c(=O)[nH]c2c1` [Example 139, N-Benzyl-8-morpholino-3-(2-oxo-1,3-dihydrobenzimidazol-5-yl)imidazo[1,2-a]pyrazine-2-carboxamide], the IC50 is 25.1 nM. For the molecule `CC(=O)N1CCN(c2nccn3c(-c4ccc5[nH]c(=O)[nH]c5c4)c(-c4ccc(C#N)cc4)nc23)CC1` [Example 106, 4-[8-(4-Acetylpiperazin-1-yl)-3-(2-oxo-1,3-dihydrobenzimidazol-5-yl)imidazo[1,2-a]pyrazin-2-yl]benzonitrile], the IC50 is 5.01 nM. Regarding `Cc1cc(O)ccc1-c1c(-c2ccc(F)cc2)nc2c(N3CCOCC3)nccn12` [Example 2, 4-[2-(4-Fluorophenyl)-8-morpholino-imidazo[1,2-a]pyrazin-3-yl]-3-methyl-phenol], the IC50 is 31.6 nM. In the case of `CC(C)(C)c1nn2c(N3CC4(COC4)C3)nccc2c1-c1ccc2c(c1)CC(=O)N2` [Example 199, 5-[2-tert-Butyl-7-(6-oxa-2-azaspiro[3.3]heptan-2-yl)pyrazolo[1,5-c]pyrimidin-3-yl]indolin-2-one] it was 316 nM.

With `Cc1cc2c(-c3ccc4c(c3)CC(=O)N4)c(-c3ccccc3)nn2c(N2CCOCC2)n1` [Example 198, 5-(5-Methyl-7-morpholino-2-phenyl-pyrazolo[1,5-c]pyrimidin-3-yl)indolin-2-one], the IC50 was 3.16 nM. `CC1(O)CCN(c2nccc3c(-c4ccc5c(c4)CC(=O)N5)c(-c4ccc(F)cc4)nn23)CC1` [Example 186, 5-[2-(4-Fluorophenyl)-7-(4-hydroxy-4-methyl-1-piperidyl)pyrazolo[1,5-c]pyrimidin-3-yl]indolin-2-one]: the IC50 was 0.2 nM. To `COc1nccn2c(-c3ccc4c(c3)CC(=O)N4)c(-c3ccc(F)cc3)nc12` [Example 247, 5-[2-(4-Fluorophenyl)-8-methoxy-imidazo[1,2-a]pyrazin-3-yl]indolin-2-one] belongs 79.4 nM.

In the case of `CC(C)(C)c1nc2c(N3CCC(=O)CC3)nccn2c1-c1ccc2c(c1)CC(=O)N2` [Example 220, 5-[2-tert-Butyl-8-(4-oxo-1-piperidyl)imidazo[1,2-a]pyrazin-3-yl]indolin-2-one], the IC50 is 63.1 nM.

For the origin of these results see patent publication US10513523B2, “Imidazopyrazines and pyrazolopyrimidines and their use as AMPA receptor modulators” (Janssen Pharmaceutica NV, priority 2015, dated 2019).
